Experiments:
Format in all cases: biochemical
Axl = biological target: T1, Axl (Homo sapiens, UniProt P30530); assay: AXL kinase mobility shift assay
T1 sequence (P30530 26-894): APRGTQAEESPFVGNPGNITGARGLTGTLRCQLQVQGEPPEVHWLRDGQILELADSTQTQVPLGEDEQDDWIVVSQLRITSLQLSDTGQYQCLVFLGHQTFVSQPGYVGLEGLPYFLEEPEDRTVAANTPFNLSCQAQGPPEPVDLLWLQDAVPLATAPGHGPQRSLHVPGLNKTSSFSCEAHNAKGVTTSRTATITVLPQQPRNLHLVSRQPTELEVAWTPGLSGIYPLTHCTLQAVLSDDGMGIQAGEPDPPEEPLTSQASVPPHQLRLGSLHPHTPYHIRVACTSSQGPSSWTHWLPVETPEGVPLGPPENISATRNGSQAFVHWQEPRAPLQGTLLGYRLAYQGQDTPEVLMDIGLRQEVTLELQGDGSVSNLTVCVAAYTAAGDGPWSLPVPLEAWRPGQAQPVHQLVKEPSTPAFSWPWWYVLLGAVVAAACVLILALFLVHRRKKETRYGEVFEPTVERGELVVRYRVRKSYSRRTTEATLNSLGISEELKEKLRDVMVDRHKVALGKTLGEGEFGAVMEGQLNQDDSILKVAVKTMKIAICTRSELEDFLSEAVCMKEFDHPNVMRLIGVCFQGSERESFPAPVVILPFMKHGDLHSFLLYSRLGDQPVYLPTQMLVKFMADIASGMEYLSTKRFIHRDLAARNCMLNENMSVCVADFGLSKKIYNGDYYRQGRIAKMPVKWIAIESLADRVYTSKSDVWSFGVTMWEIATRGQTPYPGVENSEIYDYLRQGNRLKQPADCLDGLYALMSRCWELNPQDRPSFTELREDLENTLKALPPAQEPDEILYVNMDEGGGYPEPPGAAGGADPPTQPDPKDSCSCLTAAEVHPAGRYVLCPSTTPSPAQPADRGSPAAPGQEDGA
Method: (§1) The effect of the compounds on the activity of cKit, RET and AXL kinases were assessed by Mobility shift assay. • 1. 1× kinase base buffer and stop buffer for testing kinases were prepared • 1-1) 1× Kinase base buffer (50 mM HEPES, pH 7.5, 0.01% Triton X-100) • 1-2) Stop buffer (100 mM HEPES, pH 7.5, 0.015% Brij-35, 0.2% Coating Reagent #3, 50 mM EDTA) • 2. Compound and assay plate preparation: the compound was diluted to 50× of the final desired highest inhibitor concentration in reaction by 100% DMSO. 100 μl of this compound dilution was transferred to a well in a 96-well plate. For example, if the highest desired concentration was 5 μM, then 250 μM of compound DMSO solution was prepared in this step. For all compounds, the compound was serially diluted by transferring 10 μl to 70 μl of 100 DMSO in the next well and so forth for a total of 5 concentrations. 100 μl of 100% DMSO was added to two empty wells for no compound control and no enzyme control in the same 96-well plate. The plate was labeled as source plate. The intermediate plate was prepared by transferring 10 μl of compound from source plate to a new 96-well plate as the intermediate plate, adding 90 μl of 1× kinase buffer to each well of the intermediate plate, mixing the compounds in intermediate plate for 10 min on shaker. 5 μl of each well from the 96-well intermediate plate were transferred to a 384-well plate in duplicates. For example, A1 of the 96-well plate was transferred to A1 and A2 of the 384-well plate. A2 of the 96-well plate was transferred to A3 and A4 of the 384-well plate, and so on. • 4. Kinase reaction: The assay plate already contained 5 μl of compound in 10% DMSO. A 2.5× enzyme solution was prepared by adding kinases (cKit, RET, or AXL) and DTT in 1× kinase base buffer. 2.5× enzyme solution was transferred to the assay plate (by adding 10 μl of 2.5× enzyme solution to each well of the 384-well assay plate). The plate was incubated at room temperature for 10 min. 2.5× peptide solution was prepared by adding FAM-labeled peptide, ATP, MgCl2 in the 1× kinase base buffer. 2.5× peptide solution was added to the assay plate by adding 10 μl of 2.5× peptide solution to each well of the 384-well assay plate. The plate was incubated at 28° C. for the specified period of time. 25 μl of stop buffer was added to stop reaction. Data was collected on Caliper.

HPK1 (MAP4K1) = HPK1 (MAP4K1) (Homo sapiens, UniProt Q92918); assay: HPK1 (MAP4K1) kinase Lantha screen assay
Procedure, shortened: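 Recombinant MAP4K1 preincubated 10 min with compound (6-point dilution, duplicates) in 50 mM HEPES pH 7.5, 10 mM MgCl2, then reacted with Fluorescein-PKC substrate and ATP for 90 min at room temperature. Antibody detection solution stopped reaction; after 60 min, TR-FRET read at ex 340 nm, em 520/495 nm.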

c-Kit = c-Kit (Homo sapiens, UniProt P10721); assay: cKit kinase mobility shift assay
Method: as §1

RET = RET (Homo sapiens, UniProt P07949); assay: RET kinase mobility shift assay
Method: as §1

HPK1 (MAP4K1), sequence (Q92918 whole entry, species assumed): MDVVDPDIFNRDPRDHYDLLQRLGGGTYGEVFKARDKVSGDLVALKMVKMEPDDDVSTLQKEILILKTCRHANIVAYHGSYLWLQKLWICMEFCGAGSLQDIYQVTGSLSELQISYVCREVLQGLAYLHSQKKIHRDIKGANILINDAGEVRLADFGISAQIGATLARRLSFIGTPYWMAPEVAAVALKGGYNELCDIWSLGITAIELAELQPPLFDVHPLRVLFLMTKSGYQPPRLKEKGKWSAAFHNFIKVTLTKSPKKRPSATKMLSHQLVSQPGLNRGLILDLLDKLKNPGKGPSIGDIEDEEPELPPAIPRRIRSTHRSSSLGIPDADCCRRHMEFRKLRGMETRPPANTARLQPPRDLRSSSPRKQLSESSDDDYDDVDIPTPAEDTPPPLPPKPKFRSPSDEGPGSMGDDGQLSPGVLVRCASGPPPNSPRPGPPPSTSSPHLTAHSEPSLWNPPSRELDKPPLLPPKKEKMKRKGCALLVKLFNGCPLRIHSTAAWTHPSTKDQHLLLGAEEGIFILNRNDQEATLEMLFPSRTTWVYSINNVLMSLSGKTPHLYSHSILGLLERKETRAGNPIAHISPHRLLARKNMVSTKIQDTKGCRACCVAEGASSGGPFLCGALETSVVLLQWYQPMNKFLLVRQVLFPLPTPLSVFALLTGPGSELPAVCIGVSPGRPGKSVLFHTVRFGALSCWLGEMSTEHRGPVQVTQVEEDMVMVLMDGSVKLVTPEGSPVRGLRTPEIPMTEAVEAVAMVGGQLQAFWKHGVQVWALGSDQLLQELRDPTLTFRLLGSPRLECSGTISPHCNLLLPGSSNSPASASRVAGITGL
c-Kit, sequence (P10721 26-976): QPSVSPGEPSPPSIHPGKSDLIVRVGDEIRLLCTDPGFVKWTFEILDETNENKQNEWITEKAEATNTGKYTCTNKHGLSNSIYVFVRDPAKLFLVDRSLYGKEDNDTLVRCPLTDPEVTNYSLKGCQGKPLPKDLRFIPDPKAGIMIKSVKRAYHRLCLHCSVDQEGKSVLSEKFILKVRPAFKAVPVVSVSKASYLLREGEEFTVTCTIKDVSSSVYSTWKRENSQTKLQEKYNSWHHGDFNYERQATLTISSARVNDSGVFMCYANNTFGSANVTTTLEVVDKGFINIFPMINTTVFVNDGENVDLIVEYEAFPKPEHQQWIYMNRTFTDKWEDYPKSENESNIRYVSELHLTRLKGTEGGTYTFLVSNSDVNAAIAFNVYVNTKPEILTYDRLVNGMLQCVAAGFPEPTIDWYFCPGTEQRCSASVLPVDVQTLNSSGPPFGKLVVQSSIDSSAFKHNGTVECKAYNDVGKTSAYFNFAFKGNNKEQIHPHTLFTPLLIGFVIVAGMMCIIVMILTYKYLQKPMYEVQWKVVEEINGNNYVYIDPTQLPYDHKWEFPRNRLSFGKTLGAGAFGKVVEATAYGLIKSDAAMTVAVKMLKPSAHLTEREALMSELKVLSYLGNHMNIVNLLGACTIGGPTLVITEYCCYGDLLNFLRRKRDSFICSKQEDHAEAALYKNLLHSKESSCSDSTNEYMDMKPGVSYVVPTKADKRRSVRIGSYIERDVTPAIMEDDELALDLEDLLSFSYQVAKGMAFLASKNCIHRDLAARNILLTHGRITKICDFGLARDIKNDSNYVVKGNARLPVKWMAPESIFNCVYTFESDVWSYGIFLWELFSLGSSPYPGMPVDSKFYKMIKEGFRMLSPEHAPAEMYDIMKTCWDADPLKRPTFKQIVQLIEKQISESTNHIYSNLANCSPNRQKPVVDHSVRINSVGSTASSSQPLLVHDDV
RET, sequence (P07949 29-1114, species assumed): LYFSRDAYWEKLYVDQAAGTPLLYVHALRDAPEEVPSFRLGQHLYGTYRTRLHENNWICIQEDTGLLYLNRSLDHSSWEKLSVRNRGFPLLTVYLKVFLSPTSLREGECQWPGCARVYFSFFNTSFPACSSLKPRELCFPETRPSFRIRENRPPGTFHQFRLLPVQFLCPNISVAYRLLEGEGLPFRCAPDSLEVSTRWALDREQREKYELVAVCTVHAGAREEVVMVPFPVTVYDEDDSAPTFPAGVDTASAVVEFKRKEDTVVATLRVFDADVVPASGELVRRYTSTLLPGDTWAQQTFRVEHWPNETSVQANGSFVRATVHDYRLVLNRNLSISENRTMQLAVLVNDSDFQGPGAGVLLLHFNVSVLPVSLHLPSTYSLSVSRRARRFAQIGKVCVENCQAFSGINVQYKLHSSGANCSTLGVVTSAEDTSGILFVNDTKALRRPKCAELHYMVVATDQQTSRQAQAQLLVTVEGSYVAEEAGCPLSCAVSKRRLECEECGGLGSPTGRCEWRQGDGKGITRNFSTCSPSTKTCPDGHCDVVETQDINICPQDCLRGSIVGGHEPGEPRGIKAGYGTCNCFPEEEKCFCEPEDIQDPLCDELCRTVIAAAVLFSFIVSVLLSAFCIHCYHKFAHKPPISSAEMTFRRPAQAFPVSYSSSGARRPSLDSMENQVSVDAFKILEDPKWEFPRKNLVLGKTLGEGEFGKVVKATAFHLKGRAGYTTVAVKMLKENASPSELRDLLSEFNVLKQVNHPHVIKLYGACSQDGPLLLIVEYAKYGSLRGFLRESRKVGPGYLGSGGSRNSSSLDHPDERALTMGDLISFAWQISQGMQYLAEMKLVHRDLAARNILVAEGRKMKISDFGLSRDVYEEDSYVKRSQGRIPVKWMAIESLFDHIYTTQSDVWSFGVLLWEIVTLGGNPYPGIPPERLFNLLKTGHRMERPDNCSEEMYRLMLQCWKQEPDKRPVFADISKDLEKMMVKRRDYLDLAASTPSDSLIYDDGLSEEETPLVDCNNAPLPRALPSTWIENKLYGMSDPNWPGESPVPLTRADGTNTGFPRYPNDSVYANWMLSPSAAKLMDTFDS

CNc1ncc2c(n1)N1CCN=C1C(c1cc(NC(=O)c3cn(C(C)C)c(=O)n(-c4ccc(F)cc4)c3=O)ccc1C)=C2 [Compound 193, 3-(4-fluorophenyl)-1-isopropyl-N-(4-methyl-3-(2-(methylamino)-8,9-dihydroimidazo[1′,2′:1,6]pyrido[2,3-d]pyrimidin-6-yl)phenyl)-2,4-dioxo-1,2,3,4-tetrahydropyrimidine-5-carboxamide]
IC50 (Axl): > 10 µM
IC50 (HPK1 (MAP4K1)): 0.1 to 10 µM

CNc1ncc2c(n1)N1CCN=C1C(c1c(C)ccc(NC(=O)Nc3ccccc3Cl)c1F)=C2 [Compound 336, 1-(2-chlorophenyl)-3-(2-fluoro-4-methyl-3-(2-(methylamino)-8,9-dihydroimidazo[1′,2′:1,6]pyrido[2,3-d]pyrimidin-6-yl)phenyl)urea]
IC50 (Axl): > 10 µM
IC50 (c-Kit): 0.1 to 10 µM

CNc1ncc2c(n1)N1CCN=C1C(c1ccc(C(=O)Nc3cc(C(F)(F)F)ccn3)cc1C)=C2 [Compound 276, 3-methyl-4-(2-(methylamino)-8,9-dihydroimidazo[1′,2′:1,6]pyrido[2,3-d]pyrimidin-6-yl)-N-(4-(trifluoromethyl)pyridin-2-yl)benzamide]
IC50 (Axl): > 10 µM
IC50 (HPK1 (MAP4K1)): 0.1 to 10 µM

CNc1nc(C)c2c(n1)N1CCN=C1C(c1cc(NC(=O)c3cc(C(F)(F)F)ccn3)ccc1C)=C2 [Compound 122, N-(4-methyl-3-(4-methyl-2-(methylamino)-8,9-dihydroimidazo[1′,2′:1,6]pyrido[2,3-d]pyrimidin-6-yl)phenyl)-4-(trifluoromethyl)picolinamide]
IC50 (HPK1 (MAP4K1)): > 10 µM
IC50 (RET): > 10 µM

CNc1ncc2c(n1)N1CCN=C1C(c1cc(NC(=O)Nc3cc(C(F)(F)F)ccc3Cl)c(F)cc1C)=C2 [Compound 335, 1-(2-chloro-5-(trifluoromethyl)phenyl)-3-(2-fluoro-4-methyl-5-(2-(methylamino)-8,9-dihydroimidazo[1′,2′:1,6]pyrido[2,3-d]pyrimidin-6-yl)phenyl)urea]
IC50 (Axl): > 10 µM
IC50 (c-Kit): < 0.1 µM

CNc1ncc2c(n1)N1CCN=C1C(c1cc(NS(=O)(=O)c3cccc(C(F)(F)F)c3)c(F)cc1C)=C2 [Compound 285, N-(2-fluoro-4-methyl-5-(2-(methylamino)-8,9-dihydroimidazo[1′,2′:1,6]pyrido[2,3-d]pyrimidin-6-yl)phenyl)-3-(trifluoromethyl)benzenesulfonamide]
IC50 (Axl): > 10 µM
IC50 (c-Kit): > 10 µM

CNc1ncc2c(n1)N1CCN=C1C(c1c(C)ccc(NS(=O)(=O)c3c(F)cccc3F)c1F)=C2 [Compound 297, 2,6-difluoro-N-(2-fluoro-4-methyl-3-(2-(methylamino)-8,9-dihydroimidazo[1′,2′:1,6]pyrido[2,3-d]pyrimidin-6-yl)phenyl)benzenesulfonamide]
IC50 (Axl): > 10 µM

CNc1ncc2c(n1)N1CCN=C1C(c1cc(NS(=O)(=O)c3ccccc3F)ccc1C)=C2 [Compound 289, 2-fluoro-N-(4-methyl-3-(2-(methylamino)-8,9-dihydroimidazo[1′,2′:1,6]pyrido[2,3-d]pyrimidin-6-yl)phenyl)benzenesulfonamide]
IC50 (Axl): > 10 µM
IC50 (c-Kit): > 10 µM

CNc1ncc2c(n1)N1CCN=C1C(c1cc(NC(=O)Nc3cc(C(F)(F)F)ccc3F)c(F)cc1C)=C2 [Compound 333, 1-(2-fluoro-4-methyl-5-(2-(methylamino)-8,9-dihydroimidazo[1′,2′:1,6]pyrido[2,3-d]pyrimidin-6-yl)phenyl)-3-(2-fluoro-5-(trifluoromethyl)phenyl)urea]
IC50 (Axl): > 10 µM
IC50 (c-Kit): < 0.1 µM

CNc1ncc2c(n1)N1CCN=C1C(c1c(C)ccc(NS(=O)(=O)c3ccccc3Cl)c1F)=C2 [Compound 287, 2-chloro-N-(2-fluoro-4-methyl-3-(2-(methylamino)-8,9-dihydroimidazo[1′,2′:1,6]pyrido[2,3-d]pyrimidin-6-yl)phenyl)benzenesulfonamide]
IC50 (Axl): < 0.1 µM
IC50 (c-Kit): 0.1 to 10 µM

Cc1ccc(NS(=O)(=O)c2ccccc2Cl)c(F)c1C1=Cc2cnc(NC3COC3)nc2N2CCN=C12 [Compound 303, 2-chloro-N-(2-fluoro-4-methyl-3-(2-(oxetan-3-ylamino)-8,9-dihydroimidazo[1′,2′:1,6]pyrido[2,3-d]pyrimidin-6-yl)phenyl)benzenesulfonamide]
IC50 (Axl): > 10 µM

CNc1ncc2c(n1)N1CCN=C1C(c1ccc(C(=O)Nc3cc(C(F)(F)F)ccn3)cc1)=C2 [Compound 273, 4-(2-(methylamino)-8,9-dihydroimidazo[1′,2′:1,6]pyrido[2,3-d]pyrimidin-6-yl)-N-(4-(trifluoromethyl)pyridin-2-yl)benzamide]
IC50 (Axl): 0.1 to 10 µM

Cc1ccc(NS(=O)(=O)c2cc(F)ccc2F)c(F)c1C1=Cc2cnc(NC3COC3)nc2N2CCN=C12 [Compound 302, 2,5-difluoro-N-(2-fluoro-4-methyl-3-(2-(oxetan-3-ylamino)-8,9-dihydroimidazo[1′,2′:1,6]pyrido[2,3-d]pyrimidin-6-yl)phenyl)benzenesulfonamide]
IC50 (Axl): > 10 µM

CNc1ncc2c(n1)N1CCN=C1C(Oc1ccc(NC(=O)C3(C(=O)Nc4ccc(F)cc4)CC3)cc1)=C2 [Compound 345, N-(4-fluorophenyl)-N-(4-((2-(methylamino)-8,9-dihydroimidazo[1′,2′:1,6]pyrido[2,3-d]pyrimidin-6-yl)oxy)phenyl)cyclopropane-1,1-dicarboxamide]
IC50 (Axl): 0.1 to 10 µM

CNc1ncc2c(n1)N1CCN=C1C(c1cc(NS(=O)(=O)c3ccccn3)c(F)cc1C)=C2 [Compound 292, N-(2-fluoro-4-methyl-5-(2-(methylamino)-8,9-dihydroimidazo[1′,2′:1,6]pyrido[2,3-d]pyrimidin-6-yl)phenyl)pyridine-2-sulfonamide]
IC50 (Axl): > 10 µM

CNc1ncc2c(n1)N1CCN=C1C(c1cc(NC(=O)Nc3cccc(C(F)(F)F)c3)c(F)cc1C)=C2 [Compound 330, 1-(2-fluoro-4-methyl-5-(2-(methylamino)-8,9-dihydroimidazo[1′,2′:1,6]pyrido[2,3-d]pyrimidin-6-yl)phenyl)-3-(3-(trifluoromethyl)phenyl)urea]
IC50 (Axl): > 10 µM
IC50 (HPK1 (MAP4K1)): 0.1 to 10 µM
IC50 (c-Kit): < 0.1 µM

CNc1ncc2c(n1)N1CCN=C1C(c1cc(NS(=O)(=O)Cc3ccccc3)c(F)cc1C)=C2 [Compound 293, N-(2-fluoro-4-methyl-5-(2-(methylamino)-8,9-dihydroimidazo[1′,2′:1,6]pyrido[2,3-d]pyrimidin-6-yl)phenyl)-1-phenylmethanesulfonamide]
IC50 (Axl): > 10 µM

CNc1ncc2c(n1)N1CCN=C1C(c1ccc(C(=O)Nc3ccccc3Cl)cc1)=C2 [Compound 275, N-(2-chlorophenyl)-4-(2-(methylamino)-8,9-dihydroimidazo[1′,2′:1,6]pyrido[2,3-d]pyrimidin-6-yl)benzamide]
IC50 (Axl): 0.1 to 10 µM
